# Where a SMILES comes first, the peptide text is derived from it. The star is where a group is joined. βNA = c1ccc2cc(N*)ccc2c1; Cbz = O=C(OCc1ccccc1)*
# What was measured:
# Assay in all cases: Hydrolytic activity of oral anaerobe cell suspension on aminopeptidase substrates (Experiment 1)
# Type in all cases: cell-based
# [1] = test system: Actinobacillus actinomycetemcomitans; settings: four strains, substrate 0.2 mM, pH 7.0, 37° C., 60 minutes, Table 1
# Protocol: (§1) Oral anaerobes, i.e., four strains of Treponema denticola, five strains of B. gingivalis, four strains of Actinobacillus actinomycetemcomitans, four strains of Capnocytophaga sp. and three strains of Fusobacterium nucleatum were tested for hydrolytic activity to the substrate of aminopeptidase enzyme as follows.
# (§2) The strains of Treponema were anaerobically cultivated using TYGVS media at 37° C. for 7 days, while other bacterial strains were cultivated using brain heart infusion broth at 37° C. for 48 to 72 hours. Each culture was diluted to obtain a bacterial cell suspension, the absorption at 660 nm of which was 1.0.
# (§3) Substrate compounds for aminopeptidase enzyme having various color developing groups derived from β-naphthylamine were dissolved in 0.1M Tris-HCl buffer (pH 7.0) at the concentration of 0.2 mM to obtain substrate solutions.
# (§4) To the substrate solution (1.5 ml) was added the above cell suspension (0.3 ml) and reacted at 37° C. for 60 minutes. After completion of the reaction, a coloring reagent [prepared by dissolving diazonium salt of Garnet GBC in 1M acetate buffer (containing 10% Tween 20, pH: 4.2) at the concentration of 0.5 mg/ml] was added and, after 15 minutes, the absorption at 525 nm was determined with a spectrophotometer.
# (§5) On the basis of the average amount of released β-naphthylamine in each strain, the hydrolytic activity was expressed as follows: […]
# [2] = test system: Bacteroides gingivalis; settings: five strains, substrate 0.2 mM, pH 7.0, 37° C., 60 minutes, Table 1
# Protocol: as §1, §2, §3, §4, §5
# [3] = test system: Capnocytophaga sp.; settings: four strains, substrate 0.2 mM, pH 7.0, 37° C., 60 minutes, Table 1
# Protocol: as §1, §2, §3, §4, §5
# [4] = test system: Fusobacterium nucleatum; settings: three strains, substrate 0.2 mM, pH 7.0, 37° C., 60 minutes, Table 1
# Protocol: as §1, §2, §3, §4, §5
# [5] = test system: Treponema denticola; settings: four strains, substrate 0.2 mM, pH 7.0, 37° C., 60 minutes, Table 1
# Protocol: as §1, §2, §3, §4, §5
SMILES,hydrolytic activity (average amount of released β-naphthylamine) [1],hydrolytic activity (average amount of released β-naphthylamine) [2],hydrolytic activity (average amount of released β-naphthylamine) [3],hydrolytic activity (average amount of released β-naphthylamine) [4],hydrolytic activity (average amount of released β-naphthylamine) [5]
"N=C(N)NCCC[C@H](NC(=O)[C@H](Cc1ccccc1)NC(=O)OCc1ccccc1)C(=O)Nc1ccc2ccccc2c1 [CxFR, N-carbobenzoxy-phenylalanyl-arginine-β-naphthylamide] (Cbz-Phe-Arg-βNA)",- (release amount<5 nmol/ml),+++ (release amount≥40 nmol/ml),- (release amount<5 nmol/ml),- (release amount<5 nmol/ml),+++ (release amount≥40 nmol/ml)
"N=C(N)NCCC[C@H](NC(=O)[C@H](CCCCN)NC(=O)OCc1ccccc1)C(=O)Nc1ccc2ccccc2c1 [CxKR, N-carbobenzoxy-lysyl-arginine-β-naphthylamide] (Cbz-Lys-Arg-βNA)",- (release amount<5 nmol/ml),++ (20 ≤release amount<40 nmol/ml),- (release amount<5 nmol/ml),- (release amount<5 nmol/ml),++ (20 ≤release amount<40 nmol/ml)
"N=C(N)NCCC[C@H](NC(=O)OCc1ccccc1)C(=O)N[C@@H](CCCNC(=N)N)C(=O)Nc1ccc2ccccc2c1 [CxRR, N-carbobenzoxy-arginyl-arginine-β-naphthylamide] (Cbz-Arg-Arg-βNA)",- (release amount<5 nmol/ml),+++ (release amount≥40 nmol/ml),- (release amount<5 nmol/ml),- (release amount<5 nmol/ml),+ +
"N=C(N)NCCC[C@H](NC(=O)[C@@H](N)Cc1ccccc1)C(=O)Nc1ccc2ccccc2c1 [FR, phenylalanyl-arginine-β-naphthylamide] (H-Phe-Arg-βNA)",- (release amount<5 nmol/ml),+ (10 ≤release amount<20 nmol/ml),± (5 ≤release amount<10 nmol/ml),- (release amount<5 nmol/ml),+ (10 ≤release amount<20 nmol/ml)
"NCC(=O)N[C@@H](Cc1ccccc1)C(=O)Nc1ccc2ccccc2c1 [GF, glycyl-phenylalanine-β-naphthylamide, reference compound] (H-Gly-Phe-βNA)",- (release amount<5 nmol/ml),++ (20 ≤release amount<40 nmol/ml),± (5 ≤release amount<10 nmol/ml),- (release amount<5 nmol/ml),- (release amount<5 nmol/ml)
"NCCCC[C@H](NC(=O)CN)C(=O)Nc1ccc2ccccc2c1 [GK, glycyl-lysine-β-naphthylamide, reference compound] (H-Gly-Lys-βNA)",- (release amount<5 nmol/ml),+ (10 ≤release amount<20 nmol/ml),+ (10 ≤release amount<20 nmol/ml),- (release amount<5 nmol/ml),- (release amount<5 nmol/ml)
"N=C(N)NCCC[C@H](NC(=O)[C@@H](N)CCCCN)C(=O)Nc1ccc2ccccc2c1 [KR, lysyl-arginine-β-naphthylamide] (H-Lys-Arg-βNA)",- (release amount<5 nmol/ml),++ (20 ≤release amount<40 nmol/ml),+ (10 ≤release amount<20 nmol/ml),- (release amount<5 nmol/ml),+ (10 ≤release amount<20 nmol/ml)
"N=C(N)NCCC[C@H](NC(=O)[C@H](Cc1ccccc1)NC(=O)[C@@H]1CCCN1)C(=O)Nc1ccc2ccccc2c1 [PFR, prolyl-phenylalanyl-arginine-β-naphthylamide] (H-Pro-Phe-Arg-βNA)",- (release amount<5 nmol/ml),+++ (release amount≥40 nmol/ml),- (release amount<5 nmol/ml),- (release amount<5 nmol/ml),+++ (release amount≥40 nmol/ml)
"N=C(N)NCCC[C@H](N)C(=O)NCC(=O)Nc1ccc2ccccc2c1 [RG, arginyl-glycine-β-naphthylamide, reference compound] (H-Arg-Gly-βNA)",- (release amount<5 nmol/ml),++ (20 ≤release amount<40 nmol/ml),+ (10 ≤release amount<20 nmol/ml),- (release amount<5 nmol/ml),- (release amount<5 nmol/ml)
"N=C(N)NCCC[C@H](NC(=O)[C@@H](N)CCCNC(=N)N)C(=O)Nc1ccc2ccccc2c1 [RR, arginyl-arginine-β-naphthylamide] (H-Arg-Arg-βNA)",- (release amount<5 nmol/ml),+ (10 ≤release amount<20 nmol/ml),+ (10 ≤release amount<20 nmol/ml),- (release amount<5 nmol/ml),+++ (release amount≥40 nmol/ml)
